Source: patent US20180339010A1, “USE OF SHORT SYNTHETIC PEPTIDE FOR THE TREATMENT AND/OR PROPHYLAXIS OF DRY EYE DISEASE” (priority 2015, published 2018)

Assays:
Assay type in all cases: in vivo, C57BL/6 mice
[1] = tested on: desiccating stressed-mice; test: Tear production (phenol red thread), prophylactic treatment in desiccating stress-induced dry eye model; settings: peptide 100 μM topically three times daily for 14 days in CEC; vehicle control 3.7±0.25
Method: (§1) C57BL/6 mice (7-8 weeks old, each weighted about 18 to 25 g) were used in the present study. All mice were maintained in the animal facility in accordance with the procedures approved by Mackay Memorial Hospital Review Board (Taiwan, R.O. C.). All animal experimental procedures were conducted according to the ARVO Statement for the Use of Animals in Ophthalmic and Vision Research.
(§2) Dry eyes were induced by placing mice in a controlled environment chamber (CEC) in accordance with procedures previously described by Barabino et al (IVOS (2005) 46(8), 2766-2771). Mice placed in the CEC were exposed to a relative humidity (RH)<25%, temperature of 20 to 22° C., and airflow of 15 L/min, 12 hours per day. Control mice were kept in a normal environment (RH >50%, no air flow, temperature of 21-23° C.) for the same duration.
Tear production was measured by phenol red-impregnated cotton threads (Zone-Quick; Oasis, Glendora, Calif.). The validity of this test in mice was performed in accordance with procedures previously described by Dursun et al. (IVOS (2002) 43, 632-638). The threads were held with jeweler forceps and placed in the lateral canthus for 60 seconds. The tear production expressed in millimeters of thread wet by the tear and turned red.
(§3) Dry eye was created in mice using a controlled environmental chamber (CEC) in accordance with procedures described in the “material and method” section. Treatment was started on the first day when the mice were housed in CEC, in which the present synthetic peptide (i.e., 7-mer, 100 μM), peptide vehicle (1% CMC), or peptides derived from 7-mer (i.e., 7-mer-ΔD, 7-mer-ΔS, 7-mer (V→L) and 7-mer (VR→QK), 100 μM) were topically administered to eyes three times daily for 14 days. The peptides 7-mer-ΔD (LYRVRS, SEQ ID NO: 6) and 7-mer-ΔS (DLYRVR, SEQ ID NO: 7) represented peptides with one amino acid residue respectively deleted from 5-end (D; Aspartic acid) and 3′-end (S; Serine) of 7-mer, and were used as negative control peptides. In addition, the effects of single and double amino-acid substitution at 7-mer that generate 7-mer (V→L) and 7-mer (VR→QK) were also used to treat dry eye.
The protective effects of 7-mer and its derivatives on DED were also evaluated by measuring tears produced by the test animals, and results are depicted in FIG. 2.

[2] = tested on: desiccating stressed-mice; test: Corneal epithelial histopathology (H&E), detached superficial apical cells, therapeutic treatment; settings: 14 days in CEC, then eye drops for 7 days, peptides 100 μM; for detached superficial apical cells on H&E stained cornea sections, observation in words, FIG. 4A: 0.1% Dex; for detached superficial apical cells (number), FIG. 4B: 1% CMC control 14±1.06
Method: as §1, §2
The corneal epithelial damage was assessed as described previously (Pflugfelder et al., 2005, Am J Pathol 166, 61-71). In brief, the number of detaching apical cells was counted from a full microscope field-of vision from three separate tissue sections, by two independent masked observers, using a 20 objective. Three mice were evaluated in each treatment
Dry eye was created by housing the test animals in CEC for 14 days in accordance with procedures described in the “material and method” section. After confirmation of signs of DED by fluorescein stain (FIG. […] 3A; lower panel; day 21; and FIG. 3B).

[3] = tested on: desiccating stressed-mice; test: Corneal fluorescein staining, therapeutic treatment of desiccation stress-induced dry eye; settings: 14 days in CEC, then eye drops for 7 days in normal environment (day 21); peptides 100 μM; 1% CMC control 3.6±0.26
Method: as §1, §2
Animals were anesthetized by an intraperitoneal injection of a mixture of zoletil (6 mg/kg) and xylazine (3 mg/kg). Corneal epithelial injury was determined by staining with topical fluorescein (Fluor-I-Strip, Ayerst Laboratories, Philadelphia, Pa.). Corneal fluorescein staining was examined with a slit-lamp biomicroscope under cobalt blue light and photographed with a digital camera. Data is presented as mean±SD. […]

[4] = tested on: desiccating stressed-mice; test: Corneal fluorescein staining, prophylactic treatment in desiccating stress-induced dry eye (CEC) model; settings: for biological function towards DED (summary statement): deletion peptides of SEQ ID NO: 2; for corneal fluorescein staining (score), FIG. 1B: peptide 100 μM topically to eyes three times daily for 14 days, started first day in CEC, 1% CMC vehicle 3.8±0.31
Method: as §1, §2
Animals were anesthetized by an intraperitoneal injection of a mixture of zoletil (6 mg/kg) and xylazine (3 mg/kg). Corneal epithelial injury was determined by staining with topical fluorescein (Fluor-I-Strip, Ayerst Laboratories, Philadelphia, Pa.). Corneal fluorescein staining was examined with a slit-lamp biomicroscope under cobalt blue light and photographed with a digital camera. Data is presented as mean±SD. The number of fluorescein staining dots were graded in the 1-mm central cornea zone of each eye, on a standardized five-point scale (0 dot, grade 0; 1-5 dots, grade 1; 6-15 dots, grade 2; 16-30 dots, grade 3; 30 dots, grade 4). One point was added to the score if there was one area of confluent staining, and two points were added for two or more areas of confluence. (Li J et al., Mole Visions 2012, 18, 317)
as §3
Fluorescein staining was used to assess changes in corneal epithelial integrity, and results are illustrated in FIGS. 1A and 1B. FIG. 1A are photographs taken on dry eyes respectively treated with the 1% CMC vehicle, 7-mer and its derivates; and FIG. 1B gives the quantitative analysis of FIG. 1A.

[5] = tested on: desiccating stressed-mice; test: PAS staining of goblet cells in conjunctival epithelium, therapeutic treatment; settings: 14 days in CEC, then eye drops for 7 days; for number of goblet cells in PAS-stained sections, observation in words, FIG. 5A: peptides 100 μM
Method: as §1, §2
After animals were euthanized, eyes were surgically excised, fixed in 10% formalin, paraffin embedded, and cut into 5-μm sections. […] Statistics
Dry eye was created by housing the test animals in CEC for 14 days in accordance with procedures described in the “material and method” section. After confirmation of signs of DED by fluorescein stain (FIG. 3A; upper panel; day 14), animals were then removed from the CEC and placed in the normal environment (day 15), then started treatment by administering eye drop containing 1% CMC, 1% dexamethasone (Dex), 7-mer (100 μM), or 7-mer (ΔS) (100 μM) for 7 days (FIG. 3A; lower panel; day 21; and FIG. 3B).

Row | Substance | tear production (thread wet by the tear), FIG. 2 [1] | detached superficial apical cells on H&E stained cornea sections, observation in words, FIG. 4A [2] | detached superficial apical cells (number), FIG. 4B [2] | corneal fluorescein staining score, FIG. 3B [3] | biological function towards DED (summary statement) [4] | corneal fluorescein staining (score), FIG. 1B [4] | number of goblet cells in PAS-stained sections, observation in words, FIG. 5A [5] | goblet cells (number), FIG. 5B ([5]; 7-mer 100 μM, 1% CMC control 7.5±0.96)
1 | DLYRLRS [7-mer (V→L), NH2-Asp-Leu-Tyr-Arg-Leu-Arg-Ser-COOH] | 5.0±0.16 millimeters | – | – | – | – | – | – | –
2 | DLYRQKS [7-mer (VR→QK), NH2-Asp-Leu-Tyr-Arg-Gln-Lys-Ser-COOH] | 4.9±0.15 millimeters | – | – | – | – | – | – | –
3 | DLYRVR [7-mer (ΔS), negative control peptide, 7-mer with C-terminal serine deleted] | neither 7-mer (ΔD) nor 7-mer (ΔS) peptides possessed such effect | Detached superficial apical cells were identified | 13.8±1.03 | no therapeutic effect | do not possess any biological function towards DED | no such effect | significant reduction in the number of goblet cells | –
4 | DLYRVRS [7-mer, NH2-Asp-Leu-Tyr-Arg-Val-Arg-Ser-COOH] | 5.1±0.21 millimeters | no detached cells were found | 2.1±0.37 | 1.5±0.18 | – | 1.3±0.21 | relatively the same as that of the normal healthy mice | 12.7±1.28
5 | LYRVRS [7-mer (ΔD), negative control peptide, 7-mer with N-terminal aspartate deleted] | neither 7-mer (ΔD) nor 7-mer (ΔS) peptides possessed such effect | – | – | – | do not possess any biological function towards DED | no such effect | – | –
